Test: Permeability measurements (μFlux)
Type: in vitro ADME
Settings: composition of the disclosure vs bulk ezetimibe, PAMPA membrane
Method: A μFlux instrument connected to the Rainbow instrument (Pion Inc UK Ltd, Forest Row, UK) was used to determine the passive permeability of API from different formulations. The suspensions were loaded to the donor chamber containing 10 mL of SGF (0.025 M HCl pH 1.6) and incubated for 15 min. Thereafter, the content of the donor chamber was converted to FaSSIF medium pH 6.5 by addition of 10 mL of FaSSIF concentrate media and stirring rate of 150 rpm. The receiver compartment contained 20 mL of PION acceptor buffer pH 7.4 with stirring rate of 150 rpm. The permeability was assessed across a gastrointestinal PAMPA membrane (Pion Inc UK Ltd, Forest Row, UK). The suspensions were loaded either at either 40 μg/mL for Ezetimibe or 30 μg/mL for Apalutamide using suspensions prepared at concentration of 5 mg/mL in 1 wt.-% PVPVA suspension vehicle. The temperature was set to 37° C. throughout the measurement. Incubation time was about 24 h. UV-Vis spectra were recorded at 30 s intervals at a wavelength of 293-320 nm using the Pion Rainbow Dynamic with either 10 mm tips for Ezetimibe or 5 mm tips for Apalutamide. API concentrations were calculated using second derivative to avoid interference of undissolved floating particles based on a standard curve (stock solution 5 mg/mL in ethanol). […]

O=C1[C@H](CC[C@H](O)c2ccc(F)cc2)[C@@H](c2ccc(O)cc2)N1c1ccc(F)cc1 [Eze, ezetimibe]
permeability versus bulk API: significantly better

Reference: patent publication US12303845B2, “Method for crystallization of active pharmaceutical ingredients” (Nanoform Finland Oyj, priority 2023, dated 2025)
